Data: PubChem BioAssay AID2060615 (Molecular Pharmacology Branch, DTP, NCI, 2025)
Values joined by “and” are separate entries in the source; they are usually repeats but may differ in a detail not shown here. Equal values may be shown once. Values belong to the molecule of their own block, whether it stands above or below them.

Tested on: 496974-208-R-J2-PDC complex spheroids, growth % test/control
Test: Anticancer human tumor 496974-208-R-J2-PDC patient-derived pancreatic carcinoma cell line growth inhibition [CLK]
Conditions: for viability, T/C: stronger effect = lower value
Summary of the method: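 Patient-derived tumor cells grown as complex spheroids with HUVEC endothelial cells and mesenchymal stem cells, treated with drug combinations. Concentrations descend in half-log steps from near clinical Cmax, or from 10 microM if Cmax unknown.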

[1] = curve of first compound, second compound 0.0316 µM
[2] = curve of first compound, second compound 0.1 µM
[3] = curve of first compound, second compound 0.316 µM
[4] = curve of first compound, second compound 1 µM
[5] = curve of first compound, second compound 3.16 µM
[6] = curve of first compound, second compound 10 µM
[7] = second compound 0.0316 µM, first compound 0.0316 µM
[8] = second compound 0.0316 µM, first compound 0.1 µM
[9] = second compound 0.0316 µM, first compound 0.316 µM
[10] = second compound 0.0316 µM, first compound 1 µM
[11] = second compound 0.0316 µM, first compound 3.16 µM
[12] = second compound 0.0316 µM, first compound 10 µM
[13] = second compound 0.1 µM, first compound 0.0316 µM
[14] = second compound 0.1 µM, first compound 0.1 µM
[15] = second compound 0.1 µM, first compound 0.316 µM
[16] = second compound 0.1 µM, first compound 1 µM
[17] = second compound 0.1 µM, first compound 3.16 µM
[18] = second compound 0.1 µM, first compound 10 µM
[19] = second compound 0.316 µM, first compound 0.0316 µM
[20] = second compound 0.316 µM, first compound 0.1 µM
[21] = second compound 0.316 µM, first compound 0.316 µM
[22] = second compound 0.316 µM, first compound 1 µM
[23] = second compound 0.316 µM, first compound 3.16 µM
[24] = second compound 0.316 µM, first compound 10 µM
[25] = second compound 1 µM, first compound 0.0316 µM
[26] = second compound 1 µM, first compound 0.1 µM
[27] = second compound 1 µM, first compound 0.316 µM
[28] = second compound 1 µM, first compound 1 µM
[29] = second compound 1 µM, first compound 3.16 µM
[30] = second compound 1 µM, first compound 10 µM
[31] = second compound 3.16 µM, first compound 0.0316 µM
[32] = second compound 3.16 µM, first compound 0.1 µM
[33] = second compound 3.16 µM, first compound 0.316 µM
[34] = second compound 3.16 µM, first compound 1 µM
[35] = second compound 3.16 µM, first compound 3.16 µM
[36] = second compound 3.16 µM, first compound 10 µM
[37] = second compound 10 µM, first compound 0.0316 µM
[38] = second compound 10 µM, first compound 0.1 µM
[39] = second compound 10 µM, first compound 0.316 µM
[40] = second compound 10 µM, first compound 1 µM
[41] = second compound 10 µM, first compound 3.16 µM
[42] = second compound 10 µM, first compound 10 µM
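Also: spheroids exposed to the drugs for 7 days before readout.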
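For viability, T/C in this document: 100% = DMSO vehicle control wells.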

IC50 [1]: 6500 nM
IC50 [2]: 5520 nM
IC50 [3]: 4780 nM
IC50 [4]: 2150 nM
IC50 [5]: 953 nM
IC50 [6]: 971 nM
SMILES: CC1COCCN1c1cc(C2(S(C)(=N)=O)CC2)nc(-c2ccnc3[nH]ccc23)n1 (stereo unspecified) + CNC(=O)c1ccc(Nc2nc(OC3CCCC3)c3c(-c4ccc5nc(C)oc5c4)c[nH]c3n2)c(OC)c1
viability, T/C [7]: 101%
viability, T/C [8]: 98.3%
viability, T/C [9]: 91.2%
viability, T/C [10]: 83.2%
viability, T/C [11]: 62.8%
viability, T/C [12]: 42.1%
viability, T/C [13]: 87.2%
viability, T/C [14]: 78.4%
viability, T/C [15]: 77.1%
viability, T/C [16]: 74.4%
viability, T/C [17]: 53.5%
viability, T/C [18]: 43%
viability, T/C [19]: 72.6%
viability, T/C [20]: 69.3%
viability, T/C [21]: 79%
viability, T/C [22]: 80%
viability, T/C [23]: 56.4%
viability, T/C [24]: 38.7%
viability, T/C [25]: 73.8%
viability, T/C [26]: 66.8%
viability, T/C [27]: 71%
viability, T/C [28]: 62.8%
viability, T/C [29]: 43.5%
viability, T/C [30]: 32.6%
viability, T/C [31]: 63.7%
viability, T/C [32]: 63.2%
viability, T/C [33]: 54.6%
viability, T/C [34]: 52.5%
viability, T/C [35]: 36.9%
viability, T/C [36]: 27.6%
viability, T/C [37]: 51.8%
viability, T/C [38]: 58%
viability, T/C [39]: 54.5%
viability, T/C [40]: 49.8%
viability, T/C [41]: 31.9%
viability, T/C [42]: 21.8%

IC50 (curve of compound): 471 nM and 364 nM
SMILES: C#Cc1c(F)ccc2cc(O)cc(-c3ncc4c(N5CC6CCC(C5)N6)nc(OCC56CCCN5CC(F)C6)nc4c3F)c12 (stereo unspecified)
viability, T/C (compound 0.0316 µM): 63.5% and 68.8%
viability, T/C (compound 0.1 µM): 57.4% and 58.6%
viability, T/C (compound 0.316 µM): 48.7% and 48%
viability, T/C (compound 1 µM): 48.6% and 46.5%
viability, T/C (compound 3.16 µM): 44.9% and 50.8%
viability, T/C (compound 10 µM): 38% and 43.1%

IC50 [1]: 204 nM
IC50 [2]: 33.5 nM
IC50 [3]: < 31.6 nM
IC50 [4]: < 31.6 nM
IC50 [5]: < 31.6 nM
IC50 [6]: < 31.6 nM
SMILES: C#Cc1c(F)ccc2cc(O)cc(-c3ncc4c(N5CC6CCC(C5)N6)nc(OCC56CCCN5CC(F)C6)nc4c3F)c12 (stereo unspecified) + CNC(=O)c1ccc(Nc2nc(OC3CCCC3)c3c(-c4ccc5nc(C)oc5c4)c[nH]c3n2)c(OC)c1
viability, T/C [7]: 62.4%
viability, T/C [8]: 56.8%
viability, T/C [9]: 46.1%
viability, T/C [10]: 42.2%
viability, T/C [11]: 42.9%
viability, T/C [12]: 41%
viability, T/C [13]: 57.7%
viability, T/C [14]: 46.7%
viability, T/C [15]: 35%
viability, T/C [16]: 37.2%
viability, T/C [17]: 34.6%
viability, T/C [18]: 43.1%
viability, T/C [19]: 45.2%
viability, T/C [20]: 40.2%
viability, T/C [21]: 37.2%
viability, T/C [22]: 33%
viability, T/C [23]: 33.5%
viability, T/C [24]: 31%
viability, T/C [25]: 37.8%
viability, T/C [26]: 32.5%
viability, T/C [27]: 31.2%
viability, T/C [28]: 28.1%
viability, T/C [29]: 31.3%
viability, T/C [30]: 28.4%
viability, T/C [31]: 33.5%
viability, T/C [32]: 30.4%
viability, T/C [33]: 27.2%
viability, T/C [34]: 25.8%
viability, T/C [35]: 27.6%
viability, T/C [36]: 23.8%
viability, T/C [37]: 30.1%
viability, T/C [38]: 27.9%
viability, T/C [39]: 27%
viability, T/C [40]: 22.8%
viability, T/C [41]: 23.5%
viability, T/C [42]: 21.2%
